This series can be described thus: Determination of bio-accumulation: urinary clearance pharmacokinetic study in rats. Conditions: oral gavage, 73 micro Moles per kg body weight.

Experimental: Determination of Bio-Accumulation
The fluorinated surfactants were evaluated for urinary clearance using a pharmacokinetic study in rats. The goal was to measure the total amount of parent compound eliminated via urinary output and estimate the rate of elimination.
The study utilized male Sprague Dawley rats, 6 to 8 weeks of age, and approximately 200 to 250 g body weight at study onset. The test compounds of table 2 were administered at a dose of 73 micro Moles per kg body weight in rats (N=3 animals per tested compound). All test compounds were prepared in sterile deionized water and given to rats via oral gavage. After test compounds administration, the rats were housed individually in metabolism cages for urine collection: 0 to 6 hours, 6 to 24 hours, 24 to 48 hours and 72 to 96 hours. Animals were observed throughout the study for clinical signs of toxicity. Gross necropsy was performed at the termination of each study (96 hours post-dose) with sera and liver samples being retained from each animal.
The concentration of the parent compound or metabolites thereof were quantitatively measured via fluorine NMR on each urine sample for each animal at each time point based on internally added standards.
T1/2 is the renal half-life and is the time required for the amount of a particular substance in a biological system to be reduced to one half of its value by biological processes when the rate of removal is approximately exponential. In these examples the value of T1/2 is calculated by exponential least squares curve fitting (y=Ae^Bx and T1/2=0.693/B) where y represents the concentration of analyte in urine and x represents time in hours.

`N.O=C(O)C(F)OC(F)(F)C(F)(F)C(F)(F)OC(F)(F)F` (stereo not drawn) [Compound 3, CF3—O—CF2—CF2—CF2—O—CHF—COONH4]: the “% Recovery (96 h)” value (recovery in urine after 96 h) is on record as 95%. Also, the “T½ (renal elimination half-life)” value (urine measured by fluorine NMR, exponential least squares curve fitting) was 11 h. Consider `N.O=C(O)C(F)(F)C(F)(F)C(F)(F)C(F)(F)C(F)(F)C(F)(F)C(F)(F)F` [APFO, ammonium perfluorooctanoic acid, reference compound], for which the “Compound-related Effects” value (clinical signs of toxicity and gross necropsy at 96 hours post-dose) was “Hepatomegaly”.
